{"source": "patent US20250195501A1", "about": "“CELL ENTRY-MODULATING AGENTS AND USES THEREFOR” (priority 2020, published 2025)", "key": {"[1]": {"molecular_target": "T1, ACE2:RBD-mimic1 peptide interaction (Homo sapiens, UniProt Q9BYF1)", "T1 construct": "purchased R&D Systems and Assay Matrix (ACE2); Mimotopes (peptide)", "T1 sequence (Q9BYF1 18-740 limits assumed)": "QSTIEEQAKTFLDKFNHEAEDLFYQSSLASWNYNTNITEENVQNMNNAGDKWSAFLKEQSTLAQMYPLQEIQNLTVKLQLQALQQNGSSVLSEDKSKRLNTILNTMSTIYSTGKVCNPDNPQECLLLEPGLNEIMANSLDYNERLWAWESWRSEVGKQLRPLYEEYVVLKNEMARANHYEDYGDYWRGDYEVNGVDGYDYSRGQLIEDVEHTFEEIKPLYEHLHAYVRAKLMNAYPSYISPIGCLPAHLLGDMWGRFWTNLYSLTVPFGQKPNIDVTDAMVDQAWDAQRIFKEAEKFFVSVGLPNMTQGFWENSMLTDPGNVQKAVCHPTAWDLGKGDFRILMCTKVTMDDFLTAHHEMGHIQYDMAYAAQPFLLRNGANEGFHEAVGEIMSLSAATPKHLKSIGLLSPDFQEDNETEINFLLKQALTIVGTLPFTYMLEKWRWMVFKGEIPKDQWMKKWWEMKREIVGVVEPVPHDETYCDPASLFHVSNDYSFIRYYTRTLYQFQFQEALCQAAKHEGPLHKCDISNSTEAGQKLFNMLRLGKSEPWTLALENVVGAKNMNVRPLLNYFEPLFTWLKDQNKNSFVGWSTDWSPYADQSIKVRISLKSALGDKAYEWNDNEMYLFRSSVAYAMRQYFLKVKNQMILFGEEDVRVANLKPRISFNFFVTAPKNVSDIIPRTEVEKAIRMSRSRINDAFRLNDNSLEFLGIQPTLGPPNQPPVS", "assay": "Direct competition SPR: compound vs RBD-mimic1 peptide binding to human ACE2", "conditions": "compound and RBD-mimic1 peptide flowed at 1 μM over human ACE2", "description": "Peptide alone, compound alone and the competition. Percentage competition is calculated by the reduction in final peptide binding divided by the difference between the peptide and the compound alone.\nAll SPR sensorgrams and results plots were analyzed with Biacore S200 Evaluation Software (GE Healthcare Life Sciences)."}, "Vero-E6 cells": {"tested_on": "Vero-E6 cells", "conditions": "for CC50: read-out: CC50 Mean ± SD, Vero-E6 cells, 24 h at 37° C., no virus, alamarBlue"}, "SARS-CoV-2": {"tested_on": "SARS-CoV-2", "assay": "microbe, parasite or virus in culture", "assay_type": "cell-based", "conditions": "for IC50: read-out: IC50 Mean ± SD (SARS-CoV-2 infection); for SI (selectivity index, CC50/IC50): Vero-E6 cells"}}, "note": "Like-named read-outs stand apart in the source and are kept apart here."}
{"molecule": "Ledipasvir", "values": [{"measurement": "1:1 Competition between compound vs RBD-mimic1 peptide @ 1 μM (block: Yes/Partial)", "setting": "[1]", "result": "Partial"}, {"measurement": "toxicity toward Vero-E6 cells in the infection assay", "setting": "Vero-E6 cells", "result": "toxicity was observed"}]}
{"molecule": "CCc1c2c(nc3ccc(OC(=O)N4CCC(N5CCCCC5)CC4)cc13)-c1cc3c(c(=O)n1C2)COC(=O)[C@]3(O)CC", "note": "[Irinotecan]", "values": [{"measurement": "1:1 Competition between compound vs RBD-mimic1 peptide @ 1 μM (block: Yes/Partial)", "setting": "[1]", "result": "Yes"}, {"measurement": "1:1 Competition between compound vs RBD-mimic1 peptide @ 1 μM (percentage competition)", "setting": "[1]", "result": "(100% ± 6.36)"}, {"measurement": "toxicity toward Vero-E6 cells in the infection assay", "setting": "Vero-E6 cells", "result": "toxicity was observed"}]}
{"molecule": "Cc1ccc(C(=O)Nc2ccc(S(=O)(=O)O)c3cc(S(=O)(=O)O)cc(S(=O)(=O)O)c23)cc1NC(=O)c1cccc(NC(=O)Nc2cccc(C(=O)Nc3cc(C(=O)Nc4ccc(S(=O)(=O)O)c5cc(S(=O)(=O)O)cc(S(=O)(=O)O)c45)ccc3C)c2)c1", "note": "[Suramin]", "values": [{"measurement": "IC50", "setting": "SARS-CoV-2; Severe acute respiratory syndrome coronavirus 2, Vero C1008, 24 h", "result": "28.1 ± 1.2", "unit": "µM"}, {"measurement": "SI (selectivity index, CC50/IC50)", "setting": "SARS-CoV-2", "result": ">21.6"}, {"measurement": "CC50", "setting": "Vero-E6 cells", "result": "> 1", "unit": "mM"}]}
{"molecule": "COC[C@H]1C[C@@H](c2nc(-c3ccc4c(c3)COc3cc5c(ccc6nc([C@@H]7CC[C@H](C)N7C(=O)[C@@H](NC(=O)OC)C(C)C)[nH]c65)cc3-4)c[nH]2)N(C(=O)[C@H](NC(=O)OC)c2ccccc2)C1", "note": "[Velpatasvir]", "values": [{"measurement": "1:1 Competition between compound vs RBD-mimic1 peptide @ 1 μM (block: Yes/Partial)", "setting": "[1]", "result": "Partial"}, {"measurement": "toxicity toward Vero-E6 cells in the infection assay", "setting": "Vero-E6 cells", "result": "toxicity was observed"}]}
{"molecule": "CC1(C)CCC(CN2CCN(c3ccc(C(=O)NS(=O)(=O)c4ccc(NCC5CCOCC5)c([N+](=O)[O-])c4)c(Oc4cnc5[nH]ccc5c4)c3)CC2)=C(c2ccc(Cl)cc2)C1", "note": "[Venetoclax]", "values": [{"measurement": "1:1 Competition between compound vs RBD-mimic1 peptide @ 1 μM (block: Yes/Partial)", "setting": "[1]", "result": "Partial"}, {"measurement": "toxicity toward Vero-E6 cells in the infection assay", "setting": "Vero-E6 cells", "result": "toxicity was observed"}]}
{"molecule": "Cc1cc(-c2ccc(/N=N/c3ccc4c(S(=O)(=O)[O-])cc(S(=O)(=O)[O-])c(N)c4c3O)c(C)c2)ccc1/N=N/c1ccc2c(S(=O)(=O)[O-])cc(S(=O)(=O)[O-])c(N)c2c1O.[Na+].[Na+].[Na+].[Na+]", "note": "[Evans Blue]", "values": [{"measurement": "1:1 Competition between compound vs RBD-mimic1 peptide @ 1 μM (block: Yes/Partial)", "setting": "[1]", "result": "completely block and Yes"}, {"measurement": "1:1 Competition between compound vs RBD-mimic1 peptide @ 1 μM (percentage competition)", "setting": "[1]", "result": "~100", "unit": "%"}, {"measurement": "SI (selectivity index, CC50/IC50)", "setting": "SARS-CoV-2", "result": ">35.6"}, {"measurement": "IC50", "setting": "SARS-CoV-2", "result": "28.1 ± 1.2", "unit": "µM"}, {"measurement": "toxicity toward Vero-E6 cells in the infection assay", "setting": "Vero-E6 cells", "result": "low toxicity"}, {"measurement": "CC50", "setting": "Vero-E6 cells", "result": "> 1", "unit": "mM"}]}
